According to publication PMC7400577 (Scientific Reports, 2020):
Read-outs that look alike come from different tables or passages of the source.

Tests used:
Assay type in all cases: cell-based
hGAT2 = molecular target: T1, hGAT2 (Homo sapiens, UniProt Q9NSD5); assay: [3H]GABA uptake inhibition at hGAT2 stably expressed in CHO Flp-In cells; conditions: 30 nM [3H]GABA, 3 min, CHO Flp-In cells stably expressing hGAT2; read-out: IC50 hGAT2
T1 construct: expressed in transfected cells
T1 sequence (Q9NSD5 1-602): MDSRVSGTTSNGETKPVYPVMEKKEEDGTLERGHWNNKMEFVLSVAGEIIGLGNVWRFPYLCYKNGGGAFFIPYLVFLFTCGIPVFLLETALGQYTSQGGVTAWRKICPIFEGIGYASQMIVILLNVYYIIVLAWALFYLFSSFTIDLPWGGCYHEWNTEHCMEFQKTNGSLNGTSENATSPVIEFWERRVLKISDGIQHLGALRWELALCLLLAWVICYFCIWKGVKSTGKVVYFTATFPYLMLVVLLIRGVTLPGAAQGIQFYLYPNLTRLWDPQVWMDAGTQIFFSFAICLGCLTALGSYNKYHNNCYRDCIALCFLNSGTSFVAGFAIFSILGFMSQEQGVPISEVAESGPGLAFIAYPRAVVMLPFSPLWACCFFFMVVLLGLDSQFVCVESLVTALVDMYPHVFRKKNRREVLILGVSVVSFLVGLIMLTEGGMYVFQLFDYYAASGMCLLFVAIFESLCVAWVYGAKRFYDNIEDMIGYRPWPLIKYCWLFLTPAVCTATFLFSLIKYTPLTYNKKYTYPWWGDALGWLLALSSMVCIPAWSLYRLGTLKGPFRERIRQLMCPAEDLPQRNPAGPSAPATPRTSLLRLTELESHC
Experimental: CHO Flp-In and tsA201 cells were cultured at 37 °C in a humidified atmosphere of […] and 5% CO2. As previously described[38],[63], CHO Flp-In cells stably expressing the hGATs were cultured in Ham’s F12 Nutrient Mix supplemented with 10% FBS, 1% P/S and plasmocin (5 µg/mL) under the selection pressure of hygromycin B (200 µg/mL). DMEM with GlutaMAX-I supplemented with 10% FBS and 1% P/S was used as growth medium for the tsA201 cells, which were transfected with DNA constructs using PolyFect according to the manufacturer’s specifications (Qiagen, West Sussex, UK), but with half of the recommended reagent volumes.
Uptake assays were performed in PDL-coated white 96-well polystyrene cell culture microplates (PerkinElmer, Boston, MA, USA) as previously described[38],[63]. […] Assay buffer was HBSS supplemented with 20 mM HEPES, 1 mM CaCl2 and 1 mM MgCl2, pH 7.4. […] After termination, scintillation liquid (MicroScint-20, PerkinElmer) was added and the radioactivity measured in a TopCount NXT Microplate Scintillation Counter (PerkinElmer).
Data analysis and statistical evaluation were performed in GraphPad Prism 7.02 (GraphPad Software, San Diego, CA, USA). Concentration-uptake inhibition curves, generated from the radioligand-based uptake assays, were fitted by non-linear regression, using the equation for sigmoidal concentration–response with variable slope: Y = Bottom + (Top–Bottom)/(1 + 10^((logIC50 − X) × HillSlope)), where Y is the response, X is the logarithm of the concentration, Top and Bottom are the plateaus in same units as Y, logIC50 is the concentration giving a response halfway between Bottom and Top, and the HillSlope is the steepness of the curve. For the substrate concentration–response curves generated from the FMP assay, the same equation was used but with logEC50 instead for logIC50. Unless otherwise stated, data are presented as means ± S.E.M. of at least three independent pooled experiments performed in triplicates.

hBGT1 wt = molecular target: T2, hBGT1 wt (Homo sapiens, UniProt P48065); assay: [3H]GABA uptake inhibition at wt hBGT1 transiently expressed in tsA201 cells; conditions: 30 nM [3H]GABA, tsA201 cells transiently expressing wt hBGT1
T2 construct: expressed in transfected cells; host or cells: tsA201 cells, transient (PolyFect), pcDNA5/FRT vector
T2 sequence (P48065 1-614): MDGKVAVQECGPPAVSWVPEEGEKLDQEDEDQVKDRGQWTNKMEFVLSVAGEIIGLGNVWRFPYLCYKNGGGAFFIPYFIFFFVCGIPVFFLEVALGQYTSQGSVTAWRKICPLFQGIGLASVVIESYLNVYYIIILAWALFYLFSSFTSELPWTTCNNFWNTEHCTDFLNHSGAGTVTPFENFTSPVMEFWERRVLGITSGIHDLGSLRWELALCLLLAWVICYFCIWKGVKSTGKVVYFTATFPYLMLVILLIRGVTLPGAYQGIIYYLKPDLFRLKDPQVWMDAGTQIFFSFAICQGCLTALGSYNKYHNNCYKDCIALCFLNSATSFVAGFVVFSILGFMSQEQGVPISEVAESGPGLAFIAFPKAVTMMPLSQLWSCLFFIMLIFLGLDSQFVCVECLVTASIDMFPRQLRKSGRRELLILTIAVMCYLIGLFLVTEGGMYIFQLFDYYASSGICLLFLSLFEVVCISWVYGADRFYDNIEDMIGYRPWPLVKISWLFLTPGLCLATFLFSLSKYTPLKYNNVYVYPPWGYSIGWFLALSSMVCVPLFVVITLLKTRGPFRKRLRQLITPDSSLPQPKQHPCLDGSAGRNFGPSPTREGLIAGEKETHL

hGAT3 L314Q = molecular target: T3, hGAT3 L314Q (Homo sapiens, UniProt P48066, L314Q); assay: [3H]GABA uptake inhibition at hGAT3 L314Q transiently expressed in tsA201 cells; conditions: 30 nM [3H]GABA, transient expression
T3 construct: expressed in transfected cells; host or cells: tsA201 cells, transient (PolyFect), pcDNA5/FRT vector
T3 sequence (P48066 1-632 L314Q): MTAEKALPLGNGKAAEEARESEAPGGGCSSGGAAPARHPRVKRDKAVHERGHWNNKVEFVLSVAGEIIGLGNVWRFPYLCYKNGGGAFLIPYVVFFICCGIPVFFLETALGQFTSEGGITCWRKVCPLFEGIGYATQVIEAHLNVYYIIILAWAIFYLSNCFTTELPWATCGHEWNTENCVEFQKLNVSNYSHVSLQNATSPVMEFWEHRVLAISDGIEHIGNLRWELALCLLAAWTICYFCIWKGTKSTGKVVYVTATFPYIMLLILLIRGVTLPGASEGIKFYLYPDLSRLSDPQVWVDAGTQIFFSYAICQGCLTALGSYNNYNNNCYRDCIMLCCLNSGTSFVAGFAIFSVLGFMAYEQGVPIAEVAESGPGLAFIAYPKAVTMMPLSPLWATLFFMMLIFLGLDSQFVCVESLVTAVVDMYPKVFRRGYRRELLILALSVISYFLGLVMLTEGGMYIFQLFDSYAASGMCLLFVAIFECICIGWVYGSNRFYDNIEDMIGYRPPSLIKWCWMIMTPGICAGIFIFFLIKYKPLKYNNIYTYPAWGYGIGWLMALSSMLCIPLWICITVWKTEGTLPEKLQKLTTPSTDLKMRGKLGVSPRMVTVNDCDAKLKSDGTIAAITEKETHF

[1] = read-out: pIC50 ± S.E.M. BGT1 wt (converted)
[2] = read-out: pIC50 ± S.E.M. GAT3 L314Q (converted)

SMILES: C[C@@H]1N=C(N)NC[C@@H]1C(=O)O (single isomer, unassigned) [l-15a]
- IC50 (hGAT2): > 1000 µM
- IC50 (hBGT1 wt; [1]): 20.9 µM
- IC50 (hGAT3 L314Q; read-out: IC50 GAT3 L314Q): > 1000 µM

SMILES: NC1=NCC(C(=O)O)CN1 (centres unmarked) [ATPCA, 2-amino-1,4,5,6-tetrahydropyrimidine-5-carboxylic acid, reference compound]
- IC50 (hBGT1 wt; read-out: IC50 BGT1 wt): 11 µM
- IC50 (hBGT1 wt; [1]): 10.5 µM
- IC50 (hGAT3 L314Q; read-out: IC50 GAT3 L314Q): 66 µM
- IC50 (hGAT3 L314Q; [2]): 58.9 µM

SMILES: NC1=NCC(C(=O)O)CC1 (centres unmarked) [compound 2, 6-amino-2,3,4,5-tetrahydropyridine-3-carboxylic acid, reference compound]
- IC50 (hGAT2): > 1000 µM
- IC50 (hBGT1 wt; read-out: IC50 BGT1 wt): 52 µM
- IC50 (hBGT1 wt; [1]): 51.3 µM
- IC50 (hGAT3 L314Q; read-out: IC50 GAT3 L314Q): 695 µM

SMILES: CCN1CC(C(=O)O)CN=C1N.Cl (centres unmarked) [compound 3]
- IC50 (hGAT2): > 1000 µM
- IC50 (hBGT1 wt; read-out: IC50 BGT1 wt): 406 µM
- IC50 (hBGT1 wt; [1]): 398 µM
- IC50 (hGAT3 L314Q; read-out: IC50 GAT3 L314Q): > 1000 µM

SMILES: Cl.NC1=NCC(C(=O)O)CN1Cc1ccccc1 (centres unmarked) [compound 4]
- IC50 (hGAT2): 105 µM
- IC50 (hBGT1 wt; read-out: IC50 BGT1 wt): 354 µM
- IC50 (hBGT1 wt; [1]): 324 µM
- IC50 (hGAT3 L314Q; read-out: IC50 GAT3 L314Q): 500 µM
- IC50 (hGAT3 L314Q; [2]): 490 µM

SMILES: NC1=NC=C(C(=O)O)CN1.O=C(O)C(F)(F)F [compound 11]
- IC50 (hGAT2): > 1000 µM
- IC50 (hBGT1 wt; read-out: IC50 BGT1 wt): 220 µM
- IC50 (hGAT3 L314Q; read-out: IC50 GAT3 L314Q): > 1000 µM
